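The compound was tested at five concentrations on cells cultured in 96-well plates, with a 48-hour exposure period. GI50 marks 50% less growth.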 The source made the active and inactive calls. Cut-off read from the data, not from the text of the source: active = GI50 up to about 1.1 µM and inactive = higher.
Experiments:
Experiment in all cases: growth of human tumour cells (NCI), 48 h
786-0 = test system: 786-0
A498 = test system: A498
A549 = test system: A549
BT-549 = test system: BT-549
CAKI-1 = test system: CAKI-1
CCRF-CEM = test system: CCRF-CEM
COLO 205 = test system: COLO 205
DU-145 = test system: DU-145
HCT-116 = test system: HCT-116
HCT-15 = test system: HCT-15
HL-60 = test system: HL-60
HOP-62 = test system: HOP-62
HT-29 = test system: HT-29
Hs-578T = test system: Hs-578T
IGROV-1 = test system: IGROV-1
K562 = test system: K562
KM12 = test system: KM12
LOX IMVI = test system: LOX IMVI
M14 = test system: M14
MCF7 = test system: MCF7
MDA-MB-231 = test system: MDA-MB-231
MDA-MB-435 = test system: MDA-MB-435
MDA-N = test system: MDA-N
MOLT-4 = test system: MOLT-4
Malme-3M = test system: Malme-3M
NCI-H226 = test system: NCI-H226
NCI-H23 = test system: NCI-H23
NCI-H460 = test system: NCI-H460
NCI/ADR-RES = test system: NCI/ADR-RES
OVCAR-3 = test system: OVCAR-3
OVCAR-4 = test system: OVCAR-4
OVCAR-5 = test system: OVCAR-5
OVCAR-8 = test system: OVCAR-8
PC-3 = test system: PC-3
RPMI-8226 = test system: RPMI-8226
RXF 393 = test system: RXF 393
SF-268 = test system: SF-268
SF-295 = test system: SF-295
SF-539 = test system: SF-539
SK-MEL-28 = test system: SK-MEL-28
SK-MEL-2 = test system: SK-MEL-2
SK-MEL-5 = test system: SK-MEL-5
SK-OV-3 = test system: SK-OV-3
SN12C = test system: SN12C
SNB-19 = test system: SNB-19
SNB-75 = test system: SNB-75
SR = test system: SR
SW-620 = test system: SW-620
TK-10 = test system: TK-10
U-251 = test system: U-251
UACC-257 = test system: UACC-257
UACC-62 = test system: UACC-62
UO-31 = test system: UO-31
ACHN = test system: ACHN
EKVX = test system: EKVX
HCC 2998 = test system: HCC 2998
HOP-92 = test system: HOP-92
NCI-H522 = test system: NCI-H522

SMILES: COC(=O)c1c(O)ccc2c1c1c(n2Cc2ccccc2)C(=O)c2ccccc2C1
- GI50 (786-0): 39.2 µM (inactive)
- GI50 (A498): 64.7 µM (inactive)
- GI50 (A549): 30.8 µM (inactive)
- GI50 (BT-549): 58.6 µM (inactive)
- GI50 (CAKI-1): 36.5 µM (inactive)
- GI50 (CCRF-CEM): 21.1 µM (inactive)
- GI50 (COLO 205): 15.4 µM (inactive)
- GI50 (DU-145): 99.3 µM (inactive)
- GI50 (HCT-116): 54.6 µM (inactive)
- GI50 (HCT-15): 35.1 µM
- GI50 (HL-60): 12.6 µM (inactive)
- GI50 (HOP-62): > 100 µM (inactive)
- GI50 (HT-29): 18.4 µM (inactive)
- GI50 (Hs-578T): 86.5 µM (inactive)
- GI50 (IGROV-1): 40.6 µM (inactive)
- GI50 (K562): 2.84 µM (inactive)
- GI50 (KM12): 35.1 µM (inactive)
- GI50 (LOX IMVI): 26.2 µM (inactive)
- GI50 (M14): 52.4 µM (inactive)
- GI50 (MCF7): 25.4 µM (inactive)
- GI50 (MDA-MB-231): 39.7 µM (inactive)
- GI50 (MDA-MB-435): 33 µM (inactive)
- GI50 (MDA-N): 43.4 µM (inactive)
- GI50 (MOLT-4): 3.17 µM (inactive)
- GI50 (Malme-3M): 69.5 µM (inactive)
- GI50 (NCI-H226): 46.3 µM (inactive)
- GI50 (NCI-H23): 41.2 µM (inactive)
- GI50 (NCI-H460): 31.9 µM (inactive)
- GI50 (NCI/ADR-RES): 25.8 µM (inactive)
- GI50 (OVCAR-3): 43 µM (inactive)
- GI50 (OVCAR-4): 18.6 µM (inactive)
- GI50 (OVCAR-5): 0.0282 µM (active)
- GI50 (OVCAR-8): 39.7 µM (inactive)
- GI50 (PC-3): 20 µM (inactive)
- GI50 (RPMI-8226): 12.4 µM (inactive)
- GI50 (RXF 393): 21.3 µM (inactive)
- GI50 (SF-268): 39 µM (inactive)
- GI50 (SF-295): 27.1 µM (inactive)
- GI50 (SF-539): 26.2 µM (inactive)
- GI50 (SK-MEL-28): 44.6 µM (inactive)
- GI50 (SK-MEL-2): 43.6 µM (inactive)
- GI50 (SK-MEL-5): 50 µM (inactive)
- GI50 (SK-OV-3): 31.9 µM (inactive)
- GI50 (SN12C): 21.6 µM (inactive)
- GI50 (SNB-19): 95.5 µM (inactive)
- GI50 (SNB-75): 20.6 µM (inactive)
- GI50 (SR): 7.48 µM (inactive)
- GI50 (SW-620): 74 µM (inactive)
- GI50 (TK-10): 65.9 µM (inactive)
- GI50 (U-251): 38 µM (inactive)
- GI50 (UACC-257): 50.6 µM (inactive)
- GI50 (UACC-62): 36.9 µM (inactive)
- GI50 (UO-31): 49.4 µM (inactive)

SMILES: BrCC(Br)(c1ccccc1)c1ccccc1-c1cc(-c2ccccc2)cc(-c2ccccc2)n1 (stereo not drawn)
- GI50 (786-0): 3.64 µM (inactive)
- GI50 (A498): 4.48 µM (inactive)
- GI50 (A549): 4.71 µM (inactive)
- GI50 (ACHN): 7.01 µM (inactive)
- GI50 (BT-549): 2.51 µM (inactive)
- GI50 (CAKI-1): 5.87 µM (inactive)
- GI50 (CCRF-CEM): 3.66 µM (inactive)
- GI50 (COLO 205): 1.43 µM (inactive)
- GI50 (DU-145): 4.12 µM (inactive)
- GI50 (EKVX): 3.85 µM (inactive)
- GI50 (HCC 2998): 2.05 µM (inactive)
- GI50 (HCT-116): 2.81 µM (inactive)
- GI50 (HCT-15): 15.2 µM
- GI50 (HL-60): 1.07 µM (active)
- GI50 (HOP-62): 3.55 µM (inactive)
- GI50 (HOP-92): 2.48 µM (inactive)
- GI50 (HT-29): 2.25 µM (inactive)
- GI50 (Hs-578T): 4.52 µM (inactive)
- GI50 (IGROV-1): 3.2 µM (inactive)
- GI50 (K562): 0.893 µM (active)
- GI50 (KM12): 3.13 µM (inactive)
- GI50 (LOX IMVI): 2.29 µM (inactive)
- GI50 (M14): 4.38 µM (inactive)
- GI50 (MCF7): 1.09 µM (active)
- GI50 (MDA-MB-231): 3.15 µM (inactive)
- GI50 (MDA-MB-435): 1.84 µM (inactive)
- GI50 (MDA-N): 3.01 µM (inactive)
- GI50 (MOLT-4): 3.26 µM (inactive)
- GI50 (Malme-3M): 3.16 µM (inactive)
- GI50 (NCI-H226): 3.72 µM (inactive)
- GI50 (NCI-H23): 3.94 µM (inactive)
- GI50 (NCI-H460): 3.38 µM (inactive)
- GI50 (NCI-H522): 2.33 µM (inactive)
- GI50 (NCI/ADR-RES): 33.9 µM (inactive)
- GI50 (OVCAR-4): 4.05 µM (inactive)
- GI50 (OVCAR-5): 3.67 µM (inactive)
- GI50 (OVCAR-8): 3.06 µM (inactive)
- GI50 (PC-3): 2.59 µM (inactive)
- GI50 (RPMI-8226): 0.908 µM (active)
- GI50 (RXF 393): 2 µM (inactive)
- GI50 (SF-268): 2.36 µM (inactive)
- GI50 (SF-295): 2.9 µM (inactive)
- GI50 (SF-539): 4.3 µM (inactive)
- GI50 (SK-MEL-28): 4.46 µM (inactive)
- GI50 (SK-MEL-2): 1.89 µM (inactive)
- GI50 (SK-MEL-5): 1.55 µM (inactive)
- GI50 (SN12C): 12.3 µM (inactive)
- GI50 (SNB-19): 4.86 µM (inactive)
- GI50 (SNB-75): 1.27 µM (inactive)
- GI50 (SR): 3.89 µM (inactive)
- GI50 (SW-620): 3.16 µM (inactive)
- GI50 (TK-10): 5.82 µM (inactive)
- GI50 (U-251): 1.48 µM (inactive)
- GI50 (UACC-257): 2.04 µM (inactive)
- GI50 (UO-31): 10.7 µM (inactive)
